Results published in BindingDB's records for doi:10.1016/j.bmc.2006.06.019 (University of Tennessee Health Science Center, 2006).

Target: T1, Androgen receptor (Rattus norvegicus, UniProt P15207)
T1 sequence (P15207 whole entry): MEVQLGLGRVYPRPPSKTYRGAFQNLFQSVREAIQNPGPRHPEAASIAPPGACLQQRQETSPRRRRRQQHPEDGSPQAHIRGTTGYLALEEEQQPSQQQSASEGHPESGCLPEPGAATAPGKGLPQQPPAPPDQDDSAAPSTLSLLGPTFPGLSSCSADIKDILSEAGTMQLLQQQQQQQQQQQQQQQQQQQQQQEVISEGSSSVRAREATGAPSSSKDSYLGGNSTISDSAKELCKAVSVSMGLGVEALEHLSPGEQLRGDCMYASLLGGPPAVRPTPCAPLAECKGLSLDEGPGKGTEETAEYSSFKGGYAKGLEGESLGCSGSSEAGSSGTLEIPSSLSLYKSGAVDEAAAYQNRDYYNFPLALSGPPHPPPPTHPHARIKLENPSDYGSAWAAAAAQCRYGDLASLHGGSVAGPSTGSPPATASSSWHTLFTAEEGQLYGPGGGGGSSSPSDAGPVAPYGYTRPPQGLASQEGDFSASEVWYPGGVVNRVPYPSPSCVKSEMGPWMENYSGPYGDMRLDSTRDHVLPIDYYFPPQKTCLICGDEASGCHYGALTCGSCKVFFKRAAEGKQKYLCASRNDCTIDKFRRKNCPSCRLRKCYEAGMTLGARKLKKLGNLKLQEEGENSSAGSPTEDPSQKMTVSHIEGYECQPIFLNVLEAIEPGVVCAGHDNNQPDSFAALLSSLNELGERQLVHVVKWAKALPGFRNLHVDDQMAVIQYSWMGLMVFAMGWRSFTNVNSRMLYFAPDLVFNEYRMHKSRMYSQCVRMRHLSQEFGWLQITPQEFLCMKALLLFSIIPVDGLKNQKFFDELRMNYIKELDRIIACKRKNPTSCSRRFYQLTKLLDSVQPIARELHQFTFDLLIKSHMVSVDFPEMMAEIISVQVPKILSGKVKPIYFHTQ
Test: Competitive Radioligand Displacement Assay
Settings: pH 7.4; 4 °C
Protocol: The Ki values were determined by the application of the Cheng-Prusoff equation: Ki = (IC50 x Kd)/(Kd+[L]) where [L] is the concentration of [3H]MIB (1 nM ) and Kd is the dissociation constant of the [3H]MIB determined in the saturation analysis (Kd=0.19 nM for MIB).

SMILES | Ki [nM]
C[C@@](O)(COc1ccc(N=C=S)cc1)C(=O)Nc1ccc([N+](=O)[O-])c(C(F)(F)F)c1 [(2R)-2-hydroxy-3-(4-isothiocyanatophenoxy)-2-methyl-N-[4-nitro-3-(trifluoromethyl)phenyl]propanamide] | 36.2
C[C@](O)(COc1ccc(N=C=S)c(F)c1)C(=O)Nc1ccc([N+](=O)[O-])c(C(F)(F)F)c1 [(2S)-3-(3-fluoro-4-isothiocyanatophenoxy)-2-hydroxy-2-methyl-N-[4-nitro-3-(trifluoromethyl)phenyl]propanamide] | 12.6
C[C@](O)(CSc1ccc(N=C=S)cc1)C(=O)Nc1ccc([N+](=O)[O-])c(C(F)(F)F)c1 [(2R)-2-hydroxy-3-[(4-isothiocyanatophenyl)sulfanyl]-2-methyl-N-[4-nitro-3-(trifluoromethyl)phenyl]propanamide] | 54.8
